{"source": "patent US20220040263A1", "about": "“COMPANION DIAGNOSTIC FOR COMBINATION LENALIDOMIDE AND ERYTHROPOIETIN TREATMENT” (H. Lee Moffitt Cancer Center and Research Institute, Inc., priority 2016, published 2022)", "key": {"MDS BM-MNC": {"test_system": "MDS BM-MNC", "test": "Clonogenic (colony forming) assay of MDS BM-MNC pretreated with lenalidomide, plated with EPO", "format": "cell-based, human", "procedure": "FIGS. 1A and 1B show Lenalidomide potentiates clonogenic response to […]. […] Colonies were scored after 14 days incubation and the growth of bone marrow colony-forming unit granulocyte, erythroid, macrophage, megakaryocyte (CFU-GEMM); burst-forming unit-erythroid (BFU-E); and colony-forming unit granulocyte-macrophage (CFU-GM) assessed. […] Cells were then plated in methylcellulose+10% FBS, 2000 cells/well, with or without erythropoietin (EPO). Colonies were scored at day seven.\nTo investigate the mechanism by which lenalidomide promotes erythropoiesis, the effect of lenalidomide on erythroid progenitor colony forming capacity was evaluated in lower risk patients [FIG. 1A]. Two-hour exposure to lenalidomide prior to initiation of BM-MNC in methylcellulose culture enhanced BFU-E formation over a concentration range of 0.001-1.0 μM. […] Erythroid progenitor cell lines were next evaluated to identify a model for investigation of the mechanism of lenalidomide's erythroid promoting effect."}, "c-Src": {"test_system": "c-Src", "test": "c-Src activation (p-Src416, p-Src527, Bcl-XL) in UT7 cells by Western immunoblot", "format": "cell-based", "source_text": "FIGS. 5A and 5B show lenalidomide potentiates c-Src activation. […] Cells were lysed and assayed for β-actin (Sigma), or Src, p-Src416, p-Src 527 and Bcl-XL (Cell Signaling) by Western immunoblot. Protein loading was normalized to β-actin. Relative Src activation in FIG. 5B represents the ratio of p-Src416 (activation site phosphorylation) to p-Src527 (C-terminal inhibitory p-tyrosine).\nTo confirm that EPO-R signal potentiation by lenalidomide is associated with activation of Src and Lyn kinases, Src activation was evaluated using phospho-tyrosine specific antibodies that recognize either the activation loop tyrosine (Tyr416) or the C-terminal inhibitory tyrosine (Tyr527) of c-Src. Lenalidomide alone increased phosphorylation of Tyr416 by 50% compared to the vehicle treated control [FIG. 5]."}, "rhu-CD45": {"biological_target": "T1, rhu-CD45 (Homo sapiens, UniProt P08575)", "T1 construct": "purchased Calbiochem", "T1 sequence (P08575 26-1306)": "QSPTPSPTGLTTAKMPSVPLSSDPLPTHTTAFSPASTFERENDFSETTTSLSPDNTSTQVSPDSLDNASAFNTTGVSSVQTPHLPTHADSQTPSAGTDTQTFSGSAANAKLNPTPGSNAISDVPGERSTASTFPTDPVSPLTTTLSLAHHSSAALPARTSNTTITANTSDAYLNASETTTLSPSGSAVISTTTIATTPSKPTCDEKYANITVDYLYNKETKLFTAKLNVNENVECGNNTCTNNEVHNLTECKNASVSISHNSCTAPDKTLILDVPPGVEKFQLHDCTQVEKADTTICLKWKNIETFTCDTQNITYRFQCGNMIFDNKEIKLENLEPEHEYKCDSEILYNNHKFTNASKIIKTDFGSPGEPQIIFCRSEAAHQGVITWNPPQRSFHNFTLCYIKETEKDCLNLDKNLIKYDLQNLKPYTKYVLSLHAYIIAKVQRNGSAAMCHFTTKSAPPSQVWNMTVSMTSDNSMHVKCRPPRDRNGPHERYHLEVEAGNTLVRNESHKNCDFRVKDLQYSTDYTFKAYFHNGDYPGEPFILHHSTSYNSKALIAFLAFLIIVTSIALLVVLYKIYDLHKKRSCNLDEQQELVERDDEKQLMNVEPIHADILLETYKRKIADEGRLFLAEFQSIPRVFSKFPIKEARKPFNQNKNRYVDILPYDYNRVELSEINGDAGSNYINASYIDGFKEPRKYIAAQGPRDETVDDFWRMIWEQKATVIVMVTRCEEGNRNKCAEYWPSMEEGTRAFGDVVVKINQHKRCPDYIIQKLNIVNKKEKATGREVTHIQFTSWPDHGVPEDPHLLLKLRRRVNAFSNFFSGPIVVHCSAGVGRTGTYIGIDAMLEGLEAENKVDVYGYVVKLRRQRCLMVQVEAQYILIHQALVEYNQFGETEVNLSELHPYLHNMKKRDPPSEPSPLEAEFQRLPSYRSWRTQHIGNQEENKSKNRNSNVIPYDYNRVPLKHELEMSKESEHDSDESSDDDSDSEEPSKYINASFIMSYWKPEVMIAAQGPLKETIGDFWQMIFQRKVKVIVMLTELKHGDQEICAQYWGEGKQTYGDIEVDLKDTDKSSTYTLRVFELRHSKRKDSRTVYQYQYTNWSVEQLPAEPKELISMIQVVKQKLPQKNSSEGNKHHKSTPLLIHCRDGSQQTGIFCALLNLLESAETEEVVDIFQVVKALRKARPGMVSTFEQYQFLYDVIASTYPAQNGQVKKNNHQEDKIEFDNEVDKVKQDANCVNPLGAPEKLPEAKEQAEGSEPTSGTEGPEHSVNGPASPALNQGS", "test": "BIOMOL Green CD45 Tyrosine Phosphatase Assay", "format": "biochemical", "conditions": "recombinant CD45, substrate pp60c-Src, read-out: inhibition of CD45 PTP activity", "procedure": "CD45-specific PTP activity was assayed as outlined in the BIOMOL Green™ CD45 Tyrosine Phosphatase Assay Kit. Briefly, 75 U of rhu-CD45 (Calbiochem) was incubated for 1H at 37° C. with the indicated inhibitors (1 μM CC5013 and thalidomide, 100 μM Na Orthovanadate, and 50 μM RWJ-60475 (CD45-specific PTP inhibitor) in 1× assay buffer. The substrate pp60c-Src was added at 200 μM and incubated for 1H at 37° C. Samples were read on a plate reader at 620 nm. Percent PTP activity was calculated according to the equation (OD of test sample/OD of control)×100.\nThis notion is in agreement with findings that lenalidomide suppressed cytosolic release of Csk that is dependent upon dephosphorylation of the Cbp/PAG Csk docking site (Tyr314) by CD45. To determine if lenalidomide inhibits CD45 phosphatase, recombinant CD45 PTP inhibition by lenalidomide and thalidomide was compared to the pan-PTP inhibitor sodium orthovanadate and the CD45-selective inhibitor, RWJ-60475 using the Biomol CD45 phosphatase assay. […] [FIG. 7]."}, "[1]": {"conditions": "two-hour exposure prior to methylcellulose culture"}}, "data": [{"smiles": "Nc1cccc2c1CN(C1CCC(=O)NC1=O)C2=O", "note": "(stereo not shown) [lenalidomide, 3-(4-amino-1-oxo-1,3-dihydro-2H-isoindol-2-yl)piperidine-2,6-dione]", "values": [{"measurement": "growth of multipotent progenitors (CFU-GEMM)", "setting": "MDS BM-MNC; [1]", "result": "unchanged"}, {"measurement": "growth of myeloid progenitors (CFU-GM)", "setting": "MDS BM-MNC; [1]", "result": "unchanged"}, {"measurement": "concentration range over which BFU-E formation was enhanced", "setting": "MDS BM-MNC; two-hour exposure prior to methylcellulose culture with EPO, lower risk MDS BM-MNC", "result": "0.001 to 1.0", "unit": "µM"}, {"measurement": "increase in phosphorylation of Src Tyr416 compared to the vehicle treated control", "setting": "c-Src; lenalidomide alone", "result": 50, "unit": "%"}, {"measurement": "Src activation compared to the vehicle control", "setting": "c-Src; lenalidomide combined with EPO, supra-additive", "result": "~3", "unit": "fold"}, {"measurement": "EPO-dependent induction of Bcl-XL", "setting": "c-Src; lenalidomide pre-treatment", "result": "augmented"}, {"measurement": "inhibition at 1 µM", "setting": "rhu-CD45", "result": "~50", "unit": "%"}]}]}
